Test results taken from patent US8211901B2, “Naphthamide derivatives as multi-target protein kinase inhibitors and histone deacetylase inhibitors” (Shenzhen Chipscreen Biosciences Ltd., priority 2009, dated 2012).

How the values were obtained:
HCT-8 = assay: Tumor cell proliferation (MTS), HCT-8; format: cell-based; settings: Homo sapiens, 72 hours, complete medium
Protocol: (§1) Measurement of In Vivo Cell Proliferation:
(§2) Tumor cells were trypsinized and plated into 96-well plates at 3,000 per well and incubated in complete medium with 10% FBS for 24 hours. Compounds were added over a final concentration range of 100 μmol/L to 100 nmol/L in 0.1% DMSO and incubated for 72 hours in complete medium. The effects on proliferation were determined by addition of MTS reagent (Promega) according to the instruction, incubation for 2 hours at 37° C. in CO2 incubator, and record the absorbance at 490 nm using an ELISA plate reader.
(§3) Human Cell Lines are Listed Below:
HCT-8: Ileocecal colorectal adenocarcinoma

Class I HDAC = assay: P21 reporter gene assay in HeLa cells; format: cell-based; settings: 24 hours
Protocol: HDAC subtype selectivity inhibition assay of tested compounds was carried out by several reporter gene assays experiments. Briefly, HeLa cells were seeded in 96-well plates the day before transfection to give a confluence of 50-80%. Cells were transfected with one of reporter gene plasmid containing a promoter sequence or response element upstream of a luciferase gene construct using FuGene6 transfection reagent according to the manufacturer's instruction (Roche). The promoters or response elements including p21-promoter was fused upstream to the luciferase gene reporter construct. For normalizing the transfection efficiency, a GFP expression plasmid was cotransfected. Cells were allowed to express protein for 24 hours followed by addition of individual compounds or the vehicle (DMSO). 24 hours later the cells were harvested, and the luciferase assay and GFP assay were performed using corresponding assay kits according to the manufacturer's instructions (Promega).

A-498 = assay: Tumor cell proliferation (MTS), A-498; format: cell-based; settings: Homo sapiens, A498; 72 hours, complete medium
Protocol: as §1, §2

A549 = assay: Tumor cell proliferation (MTS), A549; format: cell-based; settings: Homo sapiens, 72 hours, complete medium
Protocol: as §1, §2, §3
A549: Non small cell lung carcinoma

Bel-7402 = assay: Tumor cell proliferation (MTS), Bel-7402; format: cell-based; settings: Homo sapiens, 72 hours, complete medium
Protocol: as §1, §2, §3
Bel-7402: Hepatocellular carcinoma

MCF-7 = assay: Tumor cell proliferation (MTS), MCF-7; format: cell-based; settings: Homo sapiens, MCF7; 72 hours, complete medium
Protocol: as §1, §2, §3
MCF-7: Mammary gland adenocarcinoma

[1] = system: total HDAC enzyme (HeLa extract); assay: In vitro inhibition of total HDAC enzyme activity (HDAC Fluorimetric Assay/Drug Discovery Kit); format: biochemical
Protocol: Measurement of In Vitro Inhibition of Total HDAC Enzyme Activity:
The in vitro inhibition of total HDAC enzyme was determined by HDAC Fluorimetric Assay/Drug Discovery Kit (BIOMOL) according to manufacture's instruction. • 1. Add Assay buffer, diluted trichostatin A or test inhibitor to appropriate wells of the microtiter plate. Following table lists examples of various assay types and the additions required for each test.
• 2. Add diluted HeLa extract or other HDAC sample to all wells except those that are to be “No Enzyme Controls” (Blank). • 3. Allow diluted Fluor de Lys™ Substrate and the samples in the microtiter plate to equilibrate to assay temperature (25° C.). • 4. Initiate HDAC reactions by adding diluted substrate (25 μl) to each well and mixing thoroughly. • 5. Allow HDAC reactions to proceed for desired length of time and then stop them by addition of Fluor de Lys™ Developer (50 μl). Incubate plate at room temperature (25° C.) for 10-15 min. • 6. Read samples in a microtiter-plate reading fluorimeter capable of excitation at a wavelength in the range 350-380 nm and detection of emitted light in the range 440-460 nm. Measurement of In Vivo Inhibition of HDAC Subtype Activity: […]

HUVEC cells = assay: VEGF dependent cell proliferation (MTS); format: cell-based; settings: Homo sapiens, VEGF 165 50 ng/ml, 72 hours, serum-free medium, read-out: GI50 nM (VEGF ligand-dependent cell proliferation)
Protocol: VEGF Dependent Cell Proliferation:
HUVEC cells were plated into 96-well plates at 6,000 per well and incubated with serum-free medium for 2 hours. Compounds and VEGF 165 (50 ng/ml) were added and incubated for 72 hours in serum-free medium. The effects on proliferation were determined by addition of MTS reagent (Promega) according to the instruction, incubation for 2 hours at 37° C. in CO2 incubator, and record the absorbance at 490 nm using an ELISA plate reader.

human PDGFRβ = biological target: T1, human PDGFRβ (Homo sapiens, UniProt P09619); assay: PDGF dependent cell proliferation (MTS); format: cell-based; settings: PDGFRβ NIH-3T3 cells, PDGF BB 50 ng/ml, 72 hours, serum-free medium; read-out: GI50 nM (PDGF ligand-dependent cell proliferation)
T1 construct: expressed in transfected cells
Protocol: PDGF Dependent Cell Proliferation:
NIH-3T3 mouse fibroblasts cell line engineered to stably express human PDGFIRβ was constructed and used to evaluate PDGF dependent cell proliferation. PDGFRβ NIH-3T3 cells were plated into 96-well plates at 5,000 per well and incubated with serum-free medium for 24 hours. Compounds and PDGF BB (50 ng/ml) were added and incubated for 72 hours in serum-free medium. The effects on proliferation were determined by addition of MTS reagent (Promega) according to the instruction, incubation for 2 hours at 37° C. in CO2 incubator, and record the absorbance at 490 nm using an ELISA plate reader.

T1 sequence (P09619 33-1106): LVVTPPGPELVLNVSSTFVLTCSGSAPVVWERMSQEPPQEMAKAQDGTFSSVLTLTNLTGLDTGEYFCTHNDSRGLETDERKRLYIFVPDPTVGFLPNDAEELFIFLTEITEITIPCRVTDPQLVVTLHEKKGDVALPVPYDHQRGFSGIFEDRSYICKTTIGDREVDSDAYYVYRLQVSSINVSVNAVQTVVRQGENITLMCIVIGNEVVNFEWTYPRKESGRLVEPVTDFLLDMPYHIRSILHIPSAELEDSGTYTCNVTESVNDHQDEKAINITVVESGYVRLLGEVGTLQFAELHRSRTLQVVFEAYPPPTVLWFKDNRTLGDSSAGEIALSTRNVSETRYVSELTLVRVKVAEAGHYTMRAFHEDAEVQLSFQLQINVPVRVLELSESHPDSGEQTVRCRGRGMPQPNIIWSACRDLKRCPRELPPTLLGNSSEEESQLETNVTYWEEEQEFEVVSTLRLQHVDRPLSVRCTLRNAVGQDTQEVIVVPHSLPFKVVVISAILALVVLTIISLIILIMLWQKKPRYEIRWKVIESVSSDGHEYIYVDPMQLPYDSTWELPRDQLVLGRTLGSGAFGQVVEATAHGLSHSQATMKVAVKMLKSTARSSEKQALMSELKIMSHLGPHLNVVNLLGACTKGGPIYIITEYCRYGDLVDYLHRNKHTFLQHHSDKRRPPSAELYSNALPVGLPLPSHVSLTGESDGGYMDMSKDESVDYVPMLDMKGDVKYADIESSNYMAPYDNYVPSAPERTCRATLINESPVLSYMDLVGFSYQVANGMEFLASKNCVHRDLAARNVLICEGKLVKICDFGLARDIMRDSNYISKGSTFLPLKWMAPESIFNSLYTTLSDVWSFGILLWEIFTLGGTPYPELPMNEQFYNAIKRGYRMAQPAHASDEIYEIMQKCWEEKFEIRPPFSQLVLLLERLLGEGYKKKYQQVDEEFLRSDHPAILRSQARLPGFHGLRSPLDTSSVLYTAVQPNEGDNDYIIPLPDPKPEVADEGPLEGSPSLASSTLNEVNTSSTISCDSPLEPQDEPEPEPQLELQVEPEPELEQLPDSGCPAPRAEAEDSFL

| SMILES | GI50 (HCT-8) [µM] | Class I HDAC (P21 reporter assay) Fold Induction at 10 μM (Class I HDAC) [Fold] | GI50 (A-498) [µM] | GI50 (A549) [µM] | GI50 (Bel-7402) [µM] | GI50 (MCF-7) [µM] | % inhibition of total HDAC enzyme activity at 30 μM [1] [%] | GI50 (human PDGFRβ) [nM] | GI50 (HUVEC cells) [nM] |
| --- | --- | --- | --- | --- | --- | --- | --- | --- | --- |
| Nc1cc(F)ccc1NC(=O)c1ccc(CNC(=O)/C=C/c2cccnc2)cc1 [CS055, Chidamide, reference compound] | 7.71 | 33 | 12.1 | 11.2 | 18.9 | 3.87 | – | – | – |
| COc1cc2ncnc(Oc3ccc4c(C(=O)NCc5ccc(C(=O)Nc6ccccc6N)cc5)cccc4c3)c2cc1OC [Example 23, N-(4-((2-aminophenyl)carbamoyl)benzyl)-6-(6,7-dimethoxyquinazolin-4-yloxy)-1-naphthamide] | 5.7 | 11.3 | 14.7 | 30 | 30 | 4.3 | 49.4 | 148 | 18 |
| COc1cc2ncnc(Oc3ccc4c(C(=O)NCc5ccc(C(=O)Nc6ccccc6N)cn5)cccc4c3)c2cc1OC [Example 25] | 4.9 | 12.1 | 14.7 | 30 | 30 | 6.1 | 47.9 | 69 | 13 |
| COc1cc2ncnc(Oc3ccc4c(C(=O)Nc5ccc(Cl)cc5N)cccc4c3)c2cc1OC [Example 20, N-(2-amino-4-chlorophenyl)-6-(6,7-dimethoxyquinazolin-4-yloxy)-1-naphthamide] | – | 1.5 | – | – | – | – | 21.9 | 23 | 6 |
| COc1cc2ncnc(Oc3ccc4c(C(=O)Nc5ccccc5N)cccc4c3)c2cc1OC [Example 16, N-(2-aminophenyl)-6-(6,7-dimethoxyquinazolin-4-yloxy)-1-naphthamide] | 12.3 | 1.3 | ≥ 30 | 30 | 30 | 30 | 8.6 | 48 | 3 |
| COc1cc2ncnc(Oc3ccc4c(C(=O)Nc5ccc(C(F)(F)F)cc5N)cccc4c3)c2cc1OC [Example 22, N-(2-amino-4-trifluoromethylphenyl)-6-(6,7-dimethoxyquinazolin-4-yloxy)-1-naphthamide] | – | 1.1 | – | – | – | – | 17 | 372 | 3 |
| Nc1ccccc1NC(=O)c1ccc(CNC(=O)c2cccc3cc(Oc4ccnc5cc(Cl)ccc45)ccc23)cc1 [Example 43, N-(4-((2-aminophenyl)carbamoyl)benzyl)-6-(7-chloroquinolin-4-yloxy)-1-naphthamide] | – | 6.1 | – | – | – | – | 38.7 | – | 288 |
| Nc1ccccc1NC(=O)c1cccc2cc(Oc3ccnc4c(C(F)(F)F)cccc34)ccc12 [Example 42, N-(2-aminophenyl)-6-(8-trifluoromethylquinolin-4-yloxy)-1-naphthamide] | – | 1.3 | – | – | – | – | 6.2 | 48 | 1000 |
| Nc1ccccc1NC(=O)c1cccc2cc(Oc3ccnc4ccccc34)ccc12 [Example 39, N-(2-aminophenyl)-6-(quinolin-4-yloxy)-1-naphthamide] | – | 1.2 | – | – | – | – | 15.9 | 32 | 107 |
| COc1cc2ncnc(Oc3ccc4c(C(=O)Nc5ccc(Br)cc5N)cccc4c3)c2cc1OC [Example 21, N-(2-amino-4-bromophenyl)-6-(6,7-dimethoxyquinazolin-4-yloxy)-1-naphthamide] | – | 1.1 | – | – | – | – | 18.6 | 19 | 5 |

Now from value to compound, other results behind:

| GI50 (HCT-8) [µM] | Class I HDAC (P21 reporter assay) Fold Induction at 10 μM (Class I HDAC) [Fold] | GI50 (A-498) [µM] | GI50 (A549) [µM] | GI50 (Bel-7402) [µM] | GI50 (MCF-7) [µM] | % inhibition of total HDAC enzyme activity at 30 μM [1] [%] | GI50 (human PDGFRβ) [nM] | SMILES | GI50 (HUVEC cells) [nM] |
| --- | --- | --- | --- | --- | --- | --- | --- | --- | --- |
| – | 1.3 | – | – | – | – | 22.2 | – | Cc1cccc2c(Oc3ccc4c(C(=O)Nc5ccccc5N)cccc4c3)ccnc12 [Example 40, N-(2-aminophenyl)-6-(8-methylquinolin-4-yloxy)-1-naphthamide] | 1000 |
| – | 1.4 | – | – | – | – | 21.9 | 11 | COc1ccc(NC(=O)c2cccc3cc(Oc4ncnc5cc(OC)c(OC)cc45)ccc23)c(N)c1 [Example 19, N-(2-amino-4-methoxyphenyl)-6-(6,7-dimethoxyquinazolin-4-yloxy)-1-naphthamide] | 23 |
| 4.1 | 1.2 | 4.2 | 7.4 | 12.1 | 8.9 | 14.4 | 3 | COc1cc2nccc(Oc3ccc4c(C(=O)Nc5ccc(F)cc5N)cccc4c3)c2cc1OC [Example 36, N-(2-amino-4-fluorophenyl)-6-(6,7-dimethoxyquinolin-4-yloxy)-1-naphthamide] | 2 |
| – | 1.1 | – | – | – | – | 19.3 | 479 | Nc1ccccc1NC(=O)c1cccc2cc(Oc3ccnc4cc(Cl)ccc34)ccc12 [Example 41, N-(2-aminophenyl)-6-(7-chloroquinolin-4-yloxy)-1-naphthamide] | 105 |
| 3 | 1.1 | ≥ 30 | 30 | 30 | 30 | 22.5 | 40 | COc1cc2ncnc(Oc3ccc4c(C(=O)Nc5ccc(F)cc5N)cccc4c3)c2cc1OC [Example 17, N-(2-amino-4-fluorophenyl)-6-(6,7-dimethoxyquinazolin-4-yloxy)-1-naphthamide] | 3 |
| 6.6 | 1.8 | 7.5 | 8.3 | 17.3 | 15.9 | 21.7 | 20 | COc1ccc2c(Oc3ccc4c(C(=O)Nc5ccc(F)cc5N)cccc4c3)ccnc2c1 [Example 32, N-(2-amino-4-fluorophenyl)-6-(7-methoxyquinolin-4-yloxy)-1-naphthamide] | 2 |
| – | 1.1 | – | – | – | – | 17.1 | 15 | COc1cc2ncnc(Oc3ccc4c(C(=O)Nc5ccc(C)cc5N)cccc4c3)c2cc1OC [Example 18, N-(2-amino-4-methylphenyl)-6-(6,7-dimethoxyquinazolin-4-yloxy)-1-naphthamide] | 7 |
